pIC50: −log10 of the molar value. Residues, ends and D or L forms follow the SMILES beside them. *: point of attachment. NH(β-D-Glc) = OC[C@H]1O[C@@H](N*)[C@H](O)[C@@H](O)[C@@H]1O
Assay: Binding affinity to anti-CSF114 (Glc) antibody in serum from multiple sclerosis patient by ELISA

SMILES	pIC50
CSCC[C@H](NC(=O)[C@H](Cc1c[nH]c2ccccc12)NC(=O)CNC(=O)[C@H](Cc1ccc(O)cc1)NC(=O)[C@@H]1CCCN1C(=O)[C@H](C)NC(=O)[C@H](CC(C)C)NC(=O)[C@H](Cc1ccccc1)NC(=O)[C@@H](NC(=O)[C@H](CO)NC(=O)[C@H](Cc1cnc[nH]1)NC(=O)CNC(=O)[C@H](CC(=O)N[C@@H]1O[C@H](CO)[C@@H](O)[C@H](O)[C@H]1O)NC(=O)[C@H](CCCNC(=N)N)NC(=O)[C@H](CCC(=O)O)NC(=O)[C@@H](NC(=O)[C@H](CCCNC(=N)N)NC(=O)[C@@H]1CCCN1C(=O)[C@@H](N)[C@@H](C)O)C(C)C)C(C)C)C(=O)N[C@H](C(=O)N[C@@H](CCCCN)C(=O)O)C(C)C	6.86
CC(=O)N[C@@H](CCC(=O)O)C(=O)N[C@@H](CCCNC(=N)N)C(=O)N1CCC[C@H]1C(=O)N[C@@H](CC(=O)N[C@@H]1O[C@H](CO)[C@@H](O)[C@H](O)[C@H]1O)C(=O)N[C@@H](Cc1cnc[nH]1)C(=O)N[C@H](C(=O)N[C@H](C(N)=O)C(C)C)[C@@H](C)O (Ac-ERPD(NH(β-D-Glc))HTV-NH2)	7.83
CSCC[C@H](NC(=O)[C@H](Cc1c[nH]c2ccccc12)NC(=O)CNC(=O)[C@H](Cc1ccc(O)cc1)NC(=O)[C@@H]1CCCN1C(=O)[C@H](C)NC(=O)[C@H](CC(C)C)NC(=O)[C@H](Cc1ccccc1)NC(=O)[C@@H](NC(=O)[C@@H](NC(=O)[C@H](Cc1cnc[nH]1)NC(=O)[C@H](CC(=O)N[C@@H]1O[C@H](CO)[C@@H](O)[C@H](O)[C@H]1O)NC(=O)CNC(=O)[C@H](CCCNC(=N)N)NC(=O)[C@H](CCC(=O)O)NC(=O)[C@@H](NC(=O)[C@H](CCCNC(=N)N)NC(=O)[C@@H]1CCCN1C(=O)[C@@H](N)[C@@H](C)O)C(C)C)[C@@H](C)O)C(C)C)C(=O)N[C@H](C(=O)N[C@@H](CCCCN)C(=O)O)C(C)C (H-TPRVERGD(NH(β-D-Glc))HTVFLAPYGWMVK-OH)	7.52
CSCC[C@H](NC(=O)[C@H](Cc1c[nH]c2ccccc12)NC(=O)CNC(=O)[C@H](Cc1ccc(O)cc1)NC(=O)[C@@H]1CCCN1C(=O)[C@H](C)NC(=O)[C@H](CC(C)C)NC(=O)[C@H](Cc1ccccc1)NC(=O)[C@@H](NC(=O)[C@@H](NC(=O)[C@H](Cc1cnc[nH]1)NC(=O)[C@H](CC(=O)N[C@@H]1O[C@H](CO)[C@@H](O)[C@H](O)[C@H]1O)NC(=O)[C@@H]1CCCN1C(=O)[C@H](CCCNC(=N)N)NC(=O)[C@H](CCC(=O)O)NC(=O)[C@@H](NC(=O)[C@H](CCCNC(=N)N)NC(=O)[C@@H]1CCCN1C(=O)[C@@H](N)[C@@H](C)O)C(C)C)[C@@H](C)O)C(C)C)C(=O)N[C@H](C(=O)N[C@@H](CCCCN)C(=O)O)C(C)C (H-TPRVERPD(NH(β-D-Glc))HTVFLAPYGWMVK-OH)	7.93

From ChEMBL document CHEMBL1140050, “Designed glycopeptides with different beta-turn types as synthetic probes for the detection of autoantibodies as biomarkers of multiple sclerosis” (J Med Chem, 2008)
